According to ChEMBL document CHEMBL1133120, “Synthesis and evaluation of isothiocyanate-containing derivatives of the delta-opioid receptor antagonist Tyr-Tic-Phe-Phe (TIPP) as potential affinity labels for delta-opioid receptors” (J Med Chem, 2000):
Where a SMILES comes first, the peptide text is derived from it. [ ]: non-standard residue; d: D form. Phe(4-NH2) = Nc1ccc(C[C@H](N)C(=O)O)cc1; Tic = O=C(O)[C@@H]1Cc2ccccc2CN1

Columns and labels:
[1] = target: Delta-type opioid receptor (Mus musculus, UniProt P32300); assay: Binding assay evaluated using […] radioligand in CHO cells transfected with mouse Opioid receptor delta 1; format: cell-based
Mu-type opioid receptor = Mu-type opioid receptor (Rattus norvegicus, UniProt P33535); assay: Binding assay evaluated using DAMGO radioligand in CHO cells transfected with rat Opioid receptor mu 1; format: cell-based
Chain of Mu-type opioid receptor (P33535 whole entry): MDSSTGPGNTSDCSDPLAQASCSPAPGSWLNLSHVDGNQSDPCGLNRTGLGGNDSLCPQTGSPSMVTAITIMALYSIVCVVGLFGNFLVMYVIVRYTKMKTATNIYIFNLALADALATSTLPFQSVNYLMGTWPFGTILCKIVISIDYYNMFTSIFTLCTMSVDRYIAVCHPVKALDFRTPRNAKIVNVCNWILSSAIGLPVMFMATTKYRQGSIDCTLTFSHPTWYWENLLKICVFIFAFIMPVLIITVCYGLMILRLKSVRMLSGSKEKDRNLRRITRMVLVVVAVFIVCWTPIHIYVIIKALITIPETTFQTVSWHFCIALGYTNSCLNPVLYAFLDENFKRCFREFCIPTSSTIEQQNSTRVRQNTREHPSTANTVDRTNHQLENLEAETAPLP

Chain of Delta-type opioid receptor (P32300 whole entry): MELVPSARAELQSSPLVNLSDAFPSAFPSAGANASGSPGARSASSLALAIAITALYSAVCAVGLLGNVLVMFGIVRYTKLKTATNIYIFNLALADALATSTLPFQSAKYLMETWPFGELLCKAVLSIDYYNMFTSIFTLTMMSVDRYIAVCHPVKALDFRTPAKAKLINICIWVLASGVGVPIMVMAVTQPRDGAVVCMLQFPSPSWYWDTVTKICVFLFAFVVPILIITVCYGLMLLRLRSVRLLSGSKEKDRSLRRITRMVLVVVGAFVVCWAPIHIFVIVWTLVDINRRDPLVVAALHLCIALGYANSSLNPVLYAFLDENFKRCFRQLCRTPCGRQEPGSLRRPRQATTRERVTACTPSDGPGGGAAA

Compound	IC50 [1] [nM]	IC50 (Mu-type opioid receptor) [nM]
Nc1ccc(C[C@H](NC(=O)[C@@H]2Cc3ccccc3CN2C(=O)[C@@H](N)Cc2ccc(O)cc2)C(=O)N[C@@H](Cc2ccccc2)C(=O)O)cc1 (H-Y[Tic][Phe(4-NH2)]F-OH)	87.7	> 10000
N[C@@H](Cc1ccc(O)cc1)C(=O)N1Cc2ccccc2C[C@H]1C(=O)N[C@@H](Cc1ccccc1)C(=O)N[C@@H](Cc1ccccc1)C(=O)O (H-Y[Tic]FF-OH)	5.8	22700
Nc1ccc(C[C@H](NC(=O)[C@H](Cc2ccccc2)NC(=O)[C@@H]2Cc3ccccc3CN2C(=O)[C@@H](N)Cc2ccc(O)cc2)C(=O)O)cc1 (H-Y[Tic]F[Phe(4-NH2)]-OH)	11.8	> 10000
N[C@@H](Cc1ccc(O)cc1)C(=O)N1Cc2ccccc2C[C@H]1C(=O)N[C@@H](Cc1ccccc1)C(=O)N[C@@H](Cc1ccc(N=C=S)cc1)C(=O)O	5.4	> 10000
N[C@@H](Cc1ccc(O)cc1)C(=O)N1Cc2ccccc2C[C@H]1C(=O)N[C@@H](Cc1ccc(N=C=S)cc1)C(=O)N[C@@H](Cc1ccccc1)C(=O)O	12.4	> 10000
